Experimental data taken from the METLIN SMRT retention time set (Domingo-Almenara et al. 2019).

Experiment: gradient 5% acetonitrile 3 min, to 50% in 2 min, to 85% in 15 min, held 3 min, 100 µL/min
Conditions: column: Zorbax Extend-C18 2.1 x 50 mm; eluents: water / acetonitrile, 0.1% formic acid
How it was run: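 Mixtures of ~100 pure standards were chromatographed on a Zorbax Extend-C18 column (2.1 × 50 mm, 1.8 μm) at 100 μL/min using water and acetonitrile, each with 0.1% formic acid. Detection used a quadrupole time-of-flight mass spectrometer in positive and negative ionization mode, and data collection spanned 3 months. Retention time was obtained from adduct peaks picked computationally and each checked manually.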

SMILES | RP-LC retention time [s]
O=C(c1ccccc1OCC1CCCN(C2CCC3(CC2)OCCO3)C1)N1CCCC1 (configuration not stated) | 622
COc1ccc(NC(=O)CN2C(=O)C(C)(C)c3ccccc32)cc1OC | 778
Cc1sc(-n2c(C)c3c(C)nnc(C)c3c2C)nc1-c1ccc(Br)cc1 | 782
O=C(Nc1ccccc1C(F)(F)F)N1CC(n2cnnc2-c2ccccc2)C1 | 710
CCOC(=O)N1CCC(NC(=O)C2CCCN(c3ncnc4c3oc3ccccc34)C2)CC1 (configuration not stated) | 679
O=c1cc(Cn2nc3ccc(-c4ccc(Cl)cc4)nn3c2=O)nc2ccccn12 | 676
O=C(N[C@@H]1CN(c2ncccn2)C[C@H]1CO)c1nccc2ccccc12 | 613
Nc1nc(-c2ccccc2)c(C(=O)Nc2ccccc2)s1 | 706
Cc1ccc(C(=O)NC2CCN(c3cc(-c4cccs4)[nH]n3)C2)cc1F (configuration not stated) | 798
COc1ccc(CC(=O)NCCc2cn(C)c3ncccc23)c(Cl)c1 | 690
CCN1CCN(CCCNC(=O)Cn2c(-c3cccs3)cc3ccccc32)CC1 | 722
COc1ccc(N2C=C(C(=O)N3CCOCC3)S(=O)(=O)c3ccc(Cl)cc32)cc1Cl | 886
Cc1ccc(/C=C/S(=O)(=O)N2CC(c3nc(-c4ncccn4)no3)C2)cc1 | 729
O=C(NC1CC1)C1CCN(Cc2cc3ccccc3n2Cc2ccc(F)cc2)CC1 | 701
Cc1ccc(N(C)S(=O)(=O)c2c(C)sc(C)c2-c2cc(C(F)(F)F)on2)cc1C | 1370
CNC(=O)c1cc(-c2ccc(OC)cc2)n[nH]1 | 583
C=C(C)CN1CC[C@]23c4c5ccc(O)c4O[C@H]2c2[nH]c4ccccc4c2C[C@@]3(O)C1C5 | 703
COc1ccc2cc(-c3nc(-c4ccc(S(C)=O)cc4)[nH]c3-c3ccncc3)ccc2c1 (configuration not stated) | 682
Cc1ccc(C)c(-c2coc(-c3ccc(NC(=O)Cc4cccs4)cc3)n2)c1 | 1230
CC1Cc2ccccc2N1C(=O)Cc1csc2nc(-c3ccccc3)cn12 (configuration not stated) | 881
Cc1cccc(NS(=O)(=O)c2cc(-c3[nH]ncc3C(=O)N3CCOCC3)oc2C)c1 | 683
CC(C)c1cc(C(=O)Nc2cccc(Cl)c2)nc2ccnn12 | 1230
Cc1noc(C)c1CCC(=O)N1CCC2(CC1)CC(CCOCC1CC1)CCO2 (configuration not stated) | 831

SMILES | RP-LC retention time [s]
CCCn1cc(CCNS(=O)(=O)c2ccc(Cl)c(Cl)c2)c2cccnc21 | 1000
CC(=O)c1ccc(NC(=O)Cn2c(-c3cccnc3)nc3ccccc32)cc1 | 689
NC(=O)C1(N2CCCCC2)CCN(c2ncc(S(=O)(=O)c3ccccc3)c(N)n2)CC1 | 588
O=C(Cc1cccs1)N1CCc2nn(CC3CC3)c(=O)n2CC1 | 676
CN1CCn2cc(S(=O)(=O)Nc3cc(F)cc(F)c3)cc2C1=O | 727
O=C(c1cc2ccccc2o1)N1CCC(CNS(=O)(=O)Cc2ccccc2Cl)CC1 | 880
CS(=O)(=O)c1ccc(NC(=O)C2CN(C(=O)c3ccc(F)c(F)c3)C2)cc1 | 661
Cc1cc(C)n(-c2nc3cc(Cl)ccc3nc2N2CCN(c3ccccn3)CC2)n1 | 754
CC(C)NC(=O)c1ccc2ccnc(N3CCN(c4ccc(Cl)cc4)CC3)c2c1 | 816
COc1cccc(NC(=O)CN2C(=O)c3ccccc3Sc3ncccc32)c1 | 776
CNCc1ccc(-c2ccccc2Cl)o1 | 642
COc1ccc2c(c1)C1(CCN(S(=O)(=O)c3cc(F)ccc3C)C1)C(=O)N2 (configuration not stated) | 857
CCOc1ccc(-c2csc(Cc3nc(-c4ccccc4C)no3)n2)cc1 | 1310
CC1(C(=O)NCc2ccccc2)Cn2cnc(C(=O)NCc3ccccc3F)c2C(=O)N1C1CC1 (configuration not stated) | 783
COc1ccccc1Nc1c(-c2ccc(SC)cc2)nc2cnccn12 | 974
CCOc1ccc(NS(=O)(=O)c2cc(C(=O)Nc3cccc(Cl)c3)n[nH]2)cc1 | 916
CCc1nnc(-c2ccc(S(=O)(=O)N3CCN(C(C)C)CC3)o2)o1 | 592
CCCc1nc(-c2c(C)cc(C)nc2NC(=O)c2cc(C)ccc2C)no1 | 946
Cc1cc(C)n2nc(SCC(=O)NCCc3ccccc3)nc2n1 | 689
O=c1n(Cc2cccc(Br)c2)nc2c(S(=O)(=O)N3CCOCC3)cccn12 | 811
O=C(NC1CCN(c2cc(-c3cccs3)[nH]n2)CC1)c1ccc(F)cc1F | 769
Cc1cc(OCC(=O)Nc2ccc3c(c2)OCO3)nc(N2CCN(c3ccccc3)CC2)n1 | 776
Cc1ccccc1Cn1nc2ccc(S(=O)(=O)N3CCCCCC3)cn2c1=O | 1020

SMILES | RP-LC retention time [s]
Cc1cc(NC(=O)CN2CCc3nc(NC(=O)C4CC4)sc3C2)no1 | 546
CCCn1c(CN2CCCC2)nc2cc(NC(=O)C(C)C)ccc21 | 595
O=C(Nc1ccccc1Cl)C1CCCN(c2ncnc3c2nc2n3CCCCC2)C1 (configuration not stated) | 851
CC(=O)Nc1ccc(C(=O)N2CCC3(CC2)N=C(c2ccc(Cl)cc2)NO3)cc1 | 718
CCCCn1cc(S(=O)(=O)Nc2ccccc2F)c2cccnc21 | 922
O=C(NC1CCCC1)C1CCN(S(=O)(=O)c2cc(C(=O)N3CCCC3)cs2)CC1 | 644
O=C1CC(c2noc(-c3cccc(F)c3)n2)CN1c1ccc(Cl)cc1 (configuration not stated) | 1080
CCN(c1nc(N)c(C(=O)N=C(N)N)nc1Cl)C(C)C | 779
Cc1ccccc1CNC(=O)C1(C)CCCN(C(=O)Nc2ccc(Br)cc2)C1 (configuration not stated) | 1020
CCn1cc(CCNC(=O)Nc2ccsc2C(=O)OC)c2cccnc21 | 762
O=C(NCc1cccnc1)c1cccn1-c1nnc(N2CCOCC2)s1 | 560
COc1ccc(-c2nnc(N3CCC(C(=O)NCC4CCCCC4)CC3)o2)cc1 | 887
COC(=O)c1nnn(-c2cc(Cl)ccc2OC)c1C(=O)OC | 898
CCCn1c(=O)sc2cc(S(=O)(=O)N3CCC(C(=O)N4CCc5ccccc54)CC3)ccc21 | 1020
COc1ccccc1NC(=O)Nc1nc(CC(=O)NCc2ccco2)cs1 | 712
COc1cccc(CCC(=O)Nc2cnn(-c3ncc(N4CCCC4)cn3)c2)c1 | 829
CCN(CC)C(=O)NCCc1noc(COC)n1 | 626
COc1ccccc1CCC(=O)N1CCc2cc(-c3csc(C)n3)ccc21 | 1090
COc1ccc(CC(=O)Nc2cc(N3CCOCC3)ncn2)cc1OC | 582
CCc1cc(C(=O)N2CCOCC2)nc2cc(-c3cccs3)nn12 | 838
O=C(Nc1ccc(Cl)cc1)c1cn2c(n1)CCCC2 | 640
